Laboratory results reported in patent publication US20200163857A1, “Dual Component Compositions for Teeth Whitening” (Colgate-Palmolive Company, priority 2018, published 2020).

Experiments:
[1] = system: bacterial viability of stimulated saliva samples; assay: Salivary ATP bacteria viability assay (luciferase); assay type: cell-based; conditions: one-minute treatment; for Log10 of Viability, Mean: average of two experiments
From the text: In order to screen for preliminary antibacterial efficacy, a NaDCC solution was subjected to an ATP-bacteria viability test. This method determines the number of viable bacterial cells in culture based on the quantification of adenosine triphosphate (ATP) present. ATP is a product of the catabolism of glucose (glycolysis) and aerobic respiration. This essential nucleoside triphosphate powers virtually all cell functions and is used by bacteria during cell division, the synthesis of nucleic acids and proteins, the transport of macromolecules, cell signaling, and bacterial motility. Given its importance, ATP signals the presence of metabolically active cells, and therefore it may be used to quantify cell viability.
In a reaction, luciferin is converted to oxiluciferin by the luciferase enzyme in the presence of ATP and oxygen. A direct relationship exists between the light output of the reaction and the number of metabolically active cells that makes this method ideal for the rapid screening of antimicrobial agents during the development of oral care formulas to establish their potential antibacterial efficacy. A salivary ATP assay was used to evaluate the antibacterial efficacy of NaDCC-containing tablets on bacterial viability of stimulated saliva samples.
In this assay, a mouthwash solution containing 0.075% cetylpyridinium chloride (CPC), a known antibacterial agent, was used as a positive control. An NaDCC tablet containing only NaDCC and weighing 20 mg was disintegrated in two phosphate buffered saline (PBS) solutions to yield both a 500 ppm NaDCC solution and a 1000 ppm NaDCC solution. […] Lower viability translates into higher antibacterial properties. The data below in Table 4 was calculated using the Tukey Method with a 95% Confidence Interval for the mean.

[2] = pH-dependent bleaching of Lissamine green B by NaDCC
Procedure: Two different solutions, Solution A and Solution B, were prepared. Solution A contained 2% SAPP, 0.1% Lissamine green B dye, and 97.9% water. Solution B contained 2% tetrasodium pyrophosphate (TSPP), 0.1% Lissamine green B dye, and 97.9% water. Next, solutions with various pHs were obtained by mixing the two different solutions A and B, in different volume ratios (i.e., 1:0, 1:5, 1:1, 5:1, and 0:1). 20 mL of the resulting solutions were added to 10 mg NaDCC, and the time required to bleach away all of the Lissamine green B color was recorded.

Compound | Log10 of Viability, Mean ([1]; 0.075% CPC mouthwash solution (positive control)) | Log10 of Viability, Mean ([1]; 500 ppm NaDCC in PBS) | Log10 of Viability, Mean ([1]; 1000 ppm NaDCC in PBS) | antibacterial properties compared to the 0.075% CPC solution ([1]; NaDCC solutions at both 500 ppm and 1000 ppm in PBS) | Time to bleach ([2]; 10 mg NaDCC in 20 mL Mix Solution 1, VA:VB 1:0, pH 4.6) | Time to bleach ([2]; 10 mg NaDCC in 20 mL Mix Solution 2, VA:VB 1:5, pH 5.8) [min] | Time to bleach ([2]; 10 mg NaDCC in 20 mL Mix Solution 3, VA:VB 1:1, pH 7.4) [min] | Time to bleach ([2]; 10 mg NaDCC in 20 mL Mix Solution 4, VA:VB 5:1, pH 8.8) [min] | Time to bleach ([2]; 10 mg NaDCC in 20 mL Mix Solution 5, VA:VB 0:1, pH 10.5) [min]
CCCCCCCCCCCCCCCC[n+]1ccccc1 [CPC, cetylpyridinium chloride, reference compound] | 5.061 ± 0.032 |  |  |  |  |  |  |  | 
O=c1nc(O)n(Cl)c(=O)n1Cl [NaDCC, sodium dichloroisocyanurate] |  | 4.139 ± 0.001 | 3.530 ± 0.048 | statistically significant improvement | Instantaneous | 0.25 | 8 | 35 | 80
